Consider 20 compounds from patent US9421211B2, “N,N′-diarylurea compounds and N,N′-diarylthiourea compounds as inhibitors of translation initiation” (President and Fellows of Harvard College, priority 2009, dated 2016).

Where two headings read alike, the source gives them in different places. Some results are limits rather than exact numbers.

In data set [1] the test system is KLN mouse squamous cell carcinoma cells. As to the kind of experiment: Cell proliferation SRB assay, KLN. Type of data set: cell-based. As to the method:
(§1) Reduced availability of the ternary complex causes inhibition of translation initiation and thereby of cell proliferation. […] The effects of N,N′-diarylureas on the proliferation KLN mouse squamous cell carcinoma, CRL-2351 human breast, CRL-2813 human melanoma, A549 human lung and PC-3 human prostate cancer cell lines were tested.
(§2) Cell Growth Assay: Cell Growth was Measured by the SRB Assay.
On the technique in general: Sulforhodamine B stains cellular protein and so reports cell mass.

Data set [2] deals with eIF2.GTP.Met-tRNAi ternary complex. The data set can be described thus: ATF-4 assay (firefly/renilla luciferase ratio) in CRL-2351 cell line. The format is cell-based, human. The conditions noted are these: for maximal fold induction / EC (activity threshold of 5): Homo sapiens; for maximal fold induction: read-out: ATF-4 Amax: maximal activity, ratio of firefly over renilla luciferase expression; for EC (activity threshold of 5): read-out: ATF-4 C[5] (μM): concentration corresponding to an activity threshold of 5; for Cmax: read-out: ATF-4 Cmax (μM): concentration corresponding to the maximal activity. From the text: For example, reducing amount of the ternary complex increases translation of ATF-4, which results in elevated expression of CHOP mRNA and protein. Therefore, expression of endogenous CHOP mRNA and CHOP protein in KLN-tTA/pBISA-DL^(ATF-4) cells were utilized as secondary assays to validate N,N′-diarylurea compounds as modifiers of the eIF2.GTP.Met-tRNAi ternary complex. […] To rule out the possibility that the activity of N,N′-diarylurea compounds was confined to a single cell type, the effects of these compounds on the ternary complex assay and the expression of CHOP mRNA was assayed in CRL-2351, PC-3, CRL-2813 human breast, prostate, and melanoma cancer cell lines respectively. For the reporter gene assay, the three human cell lines were co-transfected with tTA expression vector and the pBISA-DL^(ATF-4) dual luciferase expression vector shown in FIG. 6. […] The expression of CHOP mRNA was assayed by real time PCR in the same cell lines treated with 5 or 20 μM of each compound.
Stable and transient transfection: Cells were seeded at the density of 10^5 in 60-mm (stable transfection) or 10^4 cells per well of 96-well plate (transient transfection) plates and transfected one day later using the Qiagen Transfectamine transfection kit. For selection of stable cell lines, transfected cells were transferred to 100-mm plates and selected with appropriate antibiotics.
Dual luciferase assay: Cells or minced tumors expressing firefly and renilla luciferases were lysed and the extracts assayed with a glow type dual luciferase assay kit, per manufacturer's instruction (Promega Inc., Madison, Wis.).

Data set [3] deals with CRL-2813 human melanoma cells. As to the kind of experiment: Cell proliferation SRB assay, CRL-2813. Type of data set: cell-based. As to the method:
Reduced availability of the ternary complex causes inhibition of translation initiation and thereby of cell proliferation. […] The effects of N,N′-diarylureas on the proliferation KLN mouse squamous cell carcinoma, CRL-2351 human breast, CRL-2813 human melanoma, A549 human lung and PC-3 human prostate cancer cell lines were tested. […]
as §2

In data set [4] the test system is CRL-2351 human breast cancer cells. As to the kind of experiment: Cell proliferation SRB assay, CRL-2351. Type of data set: cell-based. The conditions noted are these: Homo sapiens. As to the method: as §1, §2
Data set [5] deals with A549 human lung cancer cells. As to the kind of experiment: Cell proliferation SRB assay, A549. The format is cell-based. The conditions noted are these: read-out: IC50 (μM), concentration that inhibits cell proliferation by 50%. As to the method: as §1, §2
The mark [6] stands for this setting: KLN cells, read-out: IC50 (μM) by SRB assay, KLN.
Where [7] appears, read: CRL2813, 2813 cells, read-out: IC50 (μM) by SRB assay, 2813.
The mark [8] stands for this setting: 2351 cells, read-out: IC50 (μM) by SRB assay, 2351.

Consider `Cc1ccc(NC(=O)Nc2cc(C(F)(F)F)cc(C(F)(F)F)c2)cc1OCCN1CCOCC1` [Compound 17, 3-[3,5-bis(trifluoromethyl)phenyl]-1-{4-methyl-3-[2-(morpholin-4-yl)ethoxy]phenyl}urea], for which the IC50 in data set [1] (setting [6]) came out at 18.6 µM. Moreover, in data set [2], the maximal fold induction is 9, the EC (activity threshold of 5) amounted to 3 µM and the Cmax came out at 10 µM. The IC50 in data set [3] (setting [7]) is 0.8 µM. The IC50 in data set [4] (setting [8]) turned out to be 2.3 µM.

In the case of `O=C(Nc1ccc(Cl)c(Cl)c1)Nc1ccc(Cl)c(Cl)c1` [Compound 1, 1,3-bis(3,4-dichlorophenyl)urea], the IC50 in data set [1] (setting [6]) was above 20 µM; in data set [3] (setting [7]) it was 0.8 µM; in data set [4] (setting [8]) it was 2.6 µM. For the same compound, the maximal fold induction in data set [2] was 11. The EC (activity threshold of 5) in data set [2] is 2 µM. For the same compound, the Cmax in data set [2] was 5 µM.

Regarding `O=C(Nc1ccc(Cl)c(C(F)(F)F)c1)Nc1ccc(Cl)c(C(F)(F)F)c1` [Compound 2, 1,3-bis[4-chloro-3-(trifluoromethyl)phenyl]urea], in data set [2], the maximal fold induction is 11, the EC (activity threshold of 5) came out at 1.5 µM and the Cmax was 2.5 µM. Further, the IC50 in data set [3] (setting [7]) turned out to be 1.7 µM. Further, in data set [4] (setting [8]), the IC50 was 2.8 µM.

Take `Cc1ccc(NC(=O)Nc2ccc(Cl)c(Cl)c2)cc1OCCN1CCOCC1` [Compound 15, 3-(3,4-dichlorophenyl)-1-{4-methyl-3-[2-(morpholin-4-yl)ethoxy]phenyl}urea]: the IC50 in data set [1] (setting [6]) is 20 µM. In data set [2], the maximal fold induction was 5.5, the EC (activity threshold of 5) came to 9 µM and the Cmax was 10 µM. Further, in data set [4] (setting [8]), the IC50 was 2.4 µM.

Take `Cc1ccc(NC(=O)Nc2cc(C(F)(F)F)cc(C(F)(F)F)c2)cc1OCCN(C)C` [Compound 13, 3-[3,5-bis(trifluoromethyl)phenyl]-1-{3-[2-(dimethylamino)ethoxy]-4-methylphenyl}urea]: the IC50 in data set [1] (setting [6]) was 12.4 µM. In data set [2], the maximal fold induction was found to be 12.5, the EC (activity threshold of 5) was 5 µM and the Cmax was 10 µM. Moreover, the IC50 in data set [4] (setting [8]) is 2.9 µM.

`COc1cc(NC(=O)Nc2ccc(Cl)c(Cl)c2)ccc1C` [Compound 7]: the IC50 in data set [1] (setting [6]) is above 20 µM; in data set [3] (setting [7]), above 20 µM; in data set [4] (setting [8]), 11 µM.

`Cc1ccc(NC(=O)Nc2ccc(Cl)c(Cl)c2)cc1O` [Compound 4, 3-(3,4-dichlorophenyl)-1-(3-hydroxy-4-methylphenyl)urea]: the IC50 in data set [1] (setting [6]) is above 20 µM. Also, in data set [2], the maximal fold induction was 13, the EC (activity threshold of 5) amounted to 11 µM and the Cmax is 20 µM. Further, the IC50 in data set [3] (setting [7]) was determined as 1.8 µM. Also, the IC50 in data set [4] (setting [8]) was determined as 9 µM.

In the case of `O=C(Nc1cc(C(F)(F)F)cc(C(F)(F)F)c1)Nc1cc(C(F)(F)F)cc(C(F)(F)F)c1` [Compound 3, 1,3-bis[3,5-bis(trifluoromethyl)phenyl]urea], in data set [1] (setting [6]), the IC50 worked out at 3.9 µM. Also, in data set [2], the maximal fold induction stood at 11, the EC (activity threshold of 5) is 1.5 µM and the Cmax was found to be 2.5 µM. Also, the IC50 in data set [3] (setting [7]) came to 0.1 µM. The IC50 in data set [4] (setting [8]) came to 0.6 µM.

`Cc1ccc(NC(=O)Nc2cc(C(F)(F)F)cc(C(F)(F)F)c2)cc1OCCN1CCNCC1` [Compound 25, 4-{2-[5-({[3,5-bis(trifluoromethyl)phenyl]carbamoyl}amino)-2-methylphenoxy]ethyl}piperazine-1,4-diium dichloride]: in data set [2], the maximal fold induction worked out at 10, the EC (activity threshold of 5) turned out to be 6 µM and the Cmax amounted to 10 µM. Moreover, the IC50 in data set [3] (setting [7]) came to 3.1 µM. The IC50 in data set [4] (setting [8]) came to 5.2 µM.

Take `O=C(Nc1ccc(Cl)c(Cl)c1)Nc1cc([N+](=O)[O-])ccc1Cl` [Compound 1527]: the IC50 in data set [1] (KLN, read-out: IC50 (μM), concentration that inhibits cell proliferation by 50%) is above 20 µM; in data set [3] (CRL2813, CRL-2813, read-out: IC50 (μM), concentration that inhibits cell proliferation by 50%), 20 µM; in data set [4] (CRL-2351, read-out: IC50 (μM), concentration that inhibits cell proliferation by 50%), 9.5 µM; in data set [5] it was above 20 µM.

Take `Cc1ccc(NC(=O)Nc2ccc(Cl)c(C(F)(F)F)c2)cc1OCCN1CCOCC1` [Compound 16, 3-[4-chloro-3-(trifluoromethyl)phenyl]-1-{4-methyl-3-[2-(morpholin-4-yl)ethoxy]phenyl}urea]: the IC50 in data set [1] (setting [6]) was above 20 µM; in data set [3] (setting [7]), 0.9 µM; in data set [4] (setting [8]) it was 2.7 µM. The maximal fold induction in data set [2] was found to be 7. In data set [2], the EC (activity threshold of 5) came out at 7 µM. In data set [2], the Cmax was 10 µM.

In the case of `Cc1ccc(NC(=O)Nc2ccc(Cl)c(Cl)c2)cc1OCCN1CCNCC1` [Compound 23, 4-[2-(5-{[(3,4-dichlorophenyl)carbamoyl]amino}-2-methylphenoxy)ethyl]piperazine-1,4-diium dichloride], the IC50 was above 20 µM in data set [1] (setting [6]), 5.1 µM in data set [3] (setting [7]) and 4.5 µM in data set [4] (setting [8]). Further, in data set [2], the maximal fold induction is 7.5. The EC (activity threshold of 5) in data set [2] was found to be 7 µM. Moreover, the Cmax in data set [2] turned out to be 10 µM.

On to `O=C(Nc1ccc(Cl)c(Cl)c1)Nc1ncccc1O` [Compound 26], for which the IC50 is above 20 µM in data set [1] (setting [6]), 1.8 µM in data set [3] (setting [7]) and 2 µM in data set [4] (setting [8]). Besides, in data set [2], the maximal fold induction was found to be 12. The EC (activity threshold of 5) in data set [2] came out at 13 µM. Besides, the Cmax in data set [2] worked out at 40 µM.

In the case of `Cc1ccc(NC(=O)Nc2ccc(Cl)c(C(F)(F)F)c2)cc1O` [Compound 5, 3-[4-chloro-3-(trifluoromethyl)phenyl]-1-(3-hydroxy-4-methylphenyl)urea], in data set [1] (setting [6]), the IC50 was determined as 20 µM. Further, in data set [2], the maximal fold induction was 11, the EC (activity threshold of 5) came to 6 µM and the Cmax stood at 10 µM. For the same compound, the IC50 in data set [3] (setting [7]) amounted to 1.6 µM. The IC50 in data set [4] (setting [8]) was found to be 9.3 µM.

`COc1cc(NC(=O)Nc2ccc(Cl)c(C(F)(F)F)c2)ccc1C` [Compound 8]: in data set [1] (setting [6]), the IC50 was found to be 17.2 µM. Also, in data set [2], the maximal fold induction worked out at 8, the EC (activity threshold of 5) came out at 3 µM and the Cmax is 10 µM. Further, in data set [3] (setting [7]), the IC50 came out at 3 µM. Further, the IC50 in data set [4] (setting [8]) was 2.5 µM.

As for `Cc1ccc(NC(=O)Nc2ccc(Cl)c(C(F)(F)F)c2)cc1OCCN(C)C` [Compound 12, 3-[4-chloro-3-(trifluoromethyl)phenyl]-1-{3-[2-(dimethylamino)ethoxy]-4-methylphenyl}urea], the IC50 in data set [1] (setting [6]) turned out to be 12.3 µM; in data set [3] (setting [7]), 2.8 µM; in data set [4] (setting [8]) it was 2.5 µM. Further, the maximal fold induction in data set [2] amounted to 7. The EC (activity threshold of 5) in data set [2] amounted to 7 µM. Further, in data set [2], the Cmax came out at 10 µM.

For the compound `COc1cc(NC(=O)Nc2cc(C(F)(F)F)cc(C(F)(F)F)c2)ccc1C` [Compound 9], the IC50 in data set [1] (setting [6]) came to 20 µM. Moreover, in data set [2], the maximal fold induction worked out at 12, the EC (activity threshold of 5) was below 2.5 µM and the Cmax worked out at 20 µM. The IC50 in data set [3] (setting [7]) came to 0.7 µM. In addition, in data set [4] (setting [8]), the IC50 is 2.2 µM.

For `Cc1ccc(NC(=O)Nc2ccc(Cl)c(Cl)c2)cc1OCCN(C)C` [Compound 11, 3-(3,4-dichlorophenyl)-1-{3-[2-(dimethylamino)ethoxy]-4-methylphenyl}urea], the IC50 in data set [1] (setting [6]) is 13.5 µM. Besides, in data set [2], the maximal fold induction was 7.5, the EC (activity threshold of 5) was 8 µM and the Cmax was determined as 20 µM. Moreover, in data set [3] (setting [7]), the IC50 turned out to be 5.3 µM. In addition, in data set [4] (setting [8]), the IC50 was 5.8 µM.

For the compound `O=C(Nc1ccc(Cl)c(C(F)(F)F)c1)Nc1ncccc1O` [Compound 27], the IC50 in data set [1] (setting [6]) is 12.5 µM. Besides, in data set [2], the maximal fold induction came out at 6.5, the EC (activity threshold of 5) stood at 10 µM and the Cmax was found to be 40 µM. In data set [3] (setting [7]), the IC50 turned out to be 0.8 µM. Also, the IC50 in data set [4] (setting [8]) came out at 1.2 µM.

Turning to `Cc1ccc(NC(=O)Nc2cc(C(F)(F)F)cc(C(F)(F)F)c2)cc1O` [Compound 6, 3-[3,5-bis(trifluoromethyl)phenyl]-1-(3-hydroxy-4-methylphenyl)urea], in data set [1] (setting [6]), the IC50 came to 13.5 µM. In data set [2], the maximal fold induction amounted to 13, the EC (activity threshold of 5) was found to be 3 µM and the Cmax was 5 µM. For the same compound, in data set [3] (setting [7]), the IC50 came to 1 µM. In addition, the IC50 in data set [4] (setting [8]) is 3.2 µM.
